Values after ≈ are worked out from the molar mass of the structure shown. Square brackets hold non-standard residues; d marks the D form. Peptide text beside a SMILES is read from it. * marks the point of attachment. d(aIle) = CC[C@H](C)[C@@H](N)C(=O)O; hArg = N=C(N)NCCCC[C@H](N)C(=O)O; Lys(Me) = CNCCCC[C@H](N)C(=O)O; Lauroyl = CCCCCCCCCCCC(=O)*; Pyruvoyl = CC(=O)C(=O)*; Pentanoyl = CCCCC(=O)*; Propionyl = CCC(=O)*; Bz = O=C(c1ccccc1)*; For = O=C*
How the values were obtained:
[1] = system: human colorectal (SW620) carcinoma cells; settings: MTT
[2] = system: Haemonchus contortus L1–L3 larvae; settings: pure compounds; four days
[3] = system: Dirofilaria immitis microfilariae; settings: pure compounds; ~72 h
[4] = system: Haemonchus contortus L1–L3 larvae; assay: microbe, parasite or virus in culture; settings: 96 h, read-out: H. contortus L1–L3 Larvae Development EC50
[5] = system: Dirofilaria immitis microfilariae; assay: microbe, parasite or virus in culture; settings: 72 h, read-out: D. immitis mf Motility EC50, ~72 h
[6] = system: human colorectal (SW620) carcinoma cells; assay: cells; settings: SW-620, read-out: Human Colorectal Carcinoma Cells (SW620) IC50
[7] = system: Erwinia amylovora; design: method as in PMID 24317473; settings: at 25 μM; cited from earlier work
[8] = system: Staphylococcus aureus; design: method as in PMID 24713874; settings: cited from earlier work

SMILES	Human Colorectal Carcinoma Cells (SW620) IC50 [1]	H. contortus L1–L3 Larvae Development EC50 [2]	D. immitis mf Motility EC50 [3]	EC50 [4]	EC50 [5]	IC50 [6]	inhibition of Erwinia amylovora [7]	Staphylococcus aureus MIC [8]
CC[C@H](C)[C@@H]1NC(=O)[C@H](CCCCNC=O)NC(=O)[C@@H]([C@@H](C)CC)NC(=O)[C@H]([C@@H](C)CC)NC(=O)[C@@H](C)NC(=O)[C@H]([C@@H](C)CC)NC(=O)[C@@H](CC(C)C)NC(=O)[C@@H](Cc2ccccc2)NC1=O [acyl-surugamide A1 (5), acyl-surugamide A1] (cyclo(I[d(aIle)]K(For)I[dF][dL]I[dA]))	>30 mg/L	>25 mg/L	>25 mg/L	–	–	–	–	–
CC[C@H](C)[C@@H]1NC(=O)[C@H](CCCCNC(C)=O)NC(=O)[C@@H]([C@@H](C)CC)NC(=O)[C@H]([C@@H](C)CC)NC(=O)[C@@H](C)NC(=O)[C@H]([C@@H](C)CC)NC(=O)[C@@H](CC(C)C)NC(=O)[C@@H](Cc2ccccc2)NC1=O [acyl-surugamide A2 (6), acyl-surugamide A2] (cyclo(I[d(aIle)]K(Ac)I[dF][dL]I[dA]))	>30 mg/L	>25 mg/L	>25 mg/L	–	–	–	–	–
CCC(=O)NCCCC[C@@H]1NC(=O)[C@@H]([C@@H](C)CC)NC(=O)[C@H]([C@@H](C)CC)NC(=O)[C@@H](C)NC(=O)[C@H]([C@@H](C)CC)NC(=O)[C@@H](CC(C)C)NC(=O)[C@@H](Cc2ccccc2)NC(=O)[C@H]([C@@H](C)CC)NC1=O [acyl-surugamide A3 (7), acyl-surugamide A3] (cyclo(I[d(aIle)]K(Propionyl)I[dF][dL]I[dA]))	> 30 mg/L	>25 mg/L	3.3 mg/L	–	–	–	–	–
CC[C@H](C)[C@@H]1NC(=O)[C@H](CCCCNC(=O)C(C)=O)NC(=O)[C@@H]([C@@H](C)CC)NC(=O)[C@H]([C@@H](C)CC)NC(=O)[C@@H](C)NC(=O)[C@H]([C@@H](C)CC)NC(=O)[C@@H](CC(C)C)NC(=O)[C@@H](Cc2ccccc2)NC1=O [acyl-surugamide A4 (8), acyl-surugamide A4] (cyclo(I[d(aIle)]K(Pyruvoyl)I[dF][dL]I[dA]))	>30 mg/L	>25 mg/L	16.0 mg/L	–	–	–	–	–
CCCCC(=O)NCCCC[C@@H]1NC(=O)[C@@H]([C@@H](C)CC)NC(=O)[C@H]([C@@H](C)CC)NC(=O)[C@@H](C)NC(=O)[C@H]([C@@H](C)CC)NC(=O)[C@@H](CC(C)C)NC(=O)[C@@H](Cc2ccccc2)NC(=O)[C@H]([C@@H](C)CC)NC1=O [acyl-surugamide AS1 (13), acyl-surugamide AS1] (cyclo(I[d(aIle)]K(Pentanoyl)I[dF][dL]I[dA]))	>30 mg/L	>25 mg/L	21 mg/L	–	–	–	–	–
CCCCCCCCCCCC(=O)NCCCC[C@@H]1NC(=O)[C@@H]([C@@H](C)CC)NC(=O)[C@H]([C@@H](C)CC)NC(=O)[C@@H](C)NC(=O)[C@H]([C@@H](C)CC)NC(=O)[C@@H](CC(C)C)NC(=O)[C@@H](Cc2ccccc2)NC(=O)[C@H]([C@@H](C)CC)NC1=O [acyl-surugamide AS2 (14), acyl-surugamide AS2] (cyclo(I[d(aIle)]K(Lauroyl)I[dF][dL]I[dA]))	>30 mg/L	>25 mg/L	>25 mg/L	–	–	–	–	–
CC[C@H](C)[C@@H]1NC(=O)[C@H](CCCCNC(=O)c2ccccc2)NC(=O)[C@@H]([C@@H](C)CC)NC(=O)[C@H]([C@@H](C)CC)NC(=O)[C@@H](C)NC(=O)[C@H]([C@@H](C)CC)NC(=O)[C@@H](CC(C)C)NC(=O)[C@@H](Cc2ccccc2)NC1=O [acyl-surugamide AS3 (15), acyl-surugamide AS3] (cyclo(I[d(aIle)]K(Bz)I[dF][dL]I[dA]))	>30 mg/L	>25 mg/L	3.4 mg/L	–	–	–	–	–
CCCCCC[C@H]1C(=O)O[C@H](C)[C@H](NC(=O)c2cccc(NC=O)c2O)C(=O)O[C@@H](C)[C@@H]1OC(=O)C(C)C [antimycin A2a (2), antimycin A2a]	–	–	–	1.8 mg/L (≈ 3.37 µM)	0.0013 to 0.0021 mg/L (≈ 0.00243 to 0.00393 µM)	0.08 mg/L (≈ 0.15 µM)	–	–
CCCC[C@H]1C(=O)O[C@H](C)[C@H](NC(=O)c2cccc(NC=O)c2O)C(=O)O[C@@H](C)[C@@H]1OC(=O)C(C)C [antimycin A4a (1), antimycin A4a]	–	–	–	3.5 mg/L (≈ 6.91 µM)	0.0013 to 0.0021 mg/L (≈ 0.00257 to 0.00415 µM)	0.061 mg/L (≈ 0.12 µM)	–	–
CC[C@H](C)[C@@H]1NC(=O)[C@H](CCCCN)NC(=O)[C@@H]([C@@H](C)CC)NC(=O)[C@H]([C@@H](C)CC)NC(=O)[C@@H](C)NC(=O)[C@H]([C@@H](C)CC)NC(=O)[C@@H](CC(C)C)NC(=O)[C@@H](Cc2ccccc2)NC1=O [surugamide A (3), surugamide A] (cyclo(I[d(aIle)]KI[dF][dL]I[dA]))	>30 mg/L	>25 mg/L	>25 mg/L	–	–	–	40%	10 µM
CC[C@H](C)[C@@H]1NC(=O)[C@H](CCCCNC)NC(=O)[C@@H]([C@@H](C)CC)NC(=O)[C@H]([C@@H](C)CC)NC(=O)[C@@H](C)NC(=O)[C@H]([C@@H](C)CC)NC(=O)[C@@H](CC(C)C)NC(=O)[C@@H](Cc2ccccc2)NC1=O [surugamide K (4), surugamide K] (cyclo(I[d(aIle)][Lys(Me)]I[dF][dL]I[dA]))	>30 mg/L	>25 mg/L	>25 mg/L	–	–	–	–	–
CC[C@@H](C)[C@H]1NC(=O)[C@H]([C@@H](C)CC)NC(=O)[C@@H](C)NC(=O)[C@H]([C@@H](C)CC)NC(=O)[C@@H](CC(C)C)NC(=O)[C@@H](Cc2ccccc2)NC(=O)[C@H]([C@@H](C)CC)NC(=O)[C@H](CCCCN)NC1=O [surugamide S1 (9), cyclo[-L-Ile^1-D-Ile^2-L-Lys^3-L-Ile^4-D-Phe^5-D-Leu^6-L-Ile^7-D-Ala^8-]] (cyclo(I[dI]KI[dF][dL]I[dA]))	–	>25 mg/L	>25 mg/L	–	–	–	–	–
CC[C@H](C)[C@@H]1NC(=O)[C@H](CCCNC(=N)N)NC(=O)[C@@H]([C@@H](C)CC)NC(=O)[C@H]([C@@H](C)CC)NC(=O)[C@@H](C)NC(=O)[C@H]([C@@H](C)CC)NC(=O)[C@@H](CC(C)C)NC(=O)[C@@H](Cc2ccccc2)NC1=O [surugamide S2 (10), surugamide S2] (cyclo(I[d(aIle)]RI[dF][dL]I[dA]))	–	>25 mg/L	> 25 mg/L	–	–	–	–	–
CC[C@H](C)[C@@H]1NC(=O)[C@H](C)NC(=O)[C@@H]([C@@H](C)CC)NC(=O)[C@H]([C@@H](C)CC)NC(=O)[C@@H](C)NC(=O)[C@H]([C@@H](C)CC)NC(=O)[C@@H](CC(C)C)NC(=O)[C@@H](Cc2ccccc2)NC1=O [surugamide S3 (11), surugamide S3] (cyclo(I[d(aIle)]AI[dF][dL]I[dA]))	–	>25 mg/L	> 25 mg/L	–	–	–	–	–
CC[C@H](C)[C@@H]1NC(=O)[C@H](CCCCNC(=N)N)NC(=O)[C@@H]([C@@H](C)CC)NC(=O)[C@H]([C@@H](C)CC)NC(=O)[C@@H](C)NC(=O)[C@H]([C@@H](C)CC)NC(=O)[C@@H](CC(C)C)NC(=O)[C@@H](Cc2ccccc2)NC1=O [surugamide S4 (12), surugamide S4] (cyclo(I[d(aIle)][hArg]I[dF][dL]I[dA]))	–	>25 mg/L	>25 mg/L	–	–	–	–	–

From PMC11277932, “Australian Marine and Terrestrial Streptomyces-Derived Surugamides, and Synthetic Analogs, and Their Ability to Inhibit Dirofilaria immitis (Heartworm) Motility” (Marine Drugs, 2024)
